Measurements published in paper PMC6704710, “Preclinical evaluation of 3D185, a novel potent inhibitor of FGFR1/2/3 and CSF-1R, in FGFR-dependent and macrophage-dominant cancer models” (Journal of Experimental & Clinical Cancer Research : CR, 2019).

What was measured:
Assay in all cases: Eurofins kinase panel
Type in all cases: biochemical
Conditions in all cases: read-out: Inhibition rate (%)
ATR/ATRIP(h) = target: T1, ATR/ATRIP(h) (Homo sapiens, UniProt Q13535)
T1 construct: purchased Eurofins (KinaseProfiler)

CaMKIδ(h) = target: T2, CaMKIδ(h) (Homo sapiens, UniProt Q8IU85)
T2 construct: purchased Eurofins (KinaseProfiler)

DYRK1A(h) = target: T3, DYRK1A(h) (Homo sapiens, UniProt Q13627)
T3 construct: purchased Eurofins (KinaseProfiler)

EGFR(L861Q)(h) = target: T4, EGFR(L861Q)(h) (Homo sapiens, UniProt P00533, L861Q)
T4 construct: purchased Eurofins (KinaseProfiler)

IGF-1R(h) = target: T5, IGF-1R(h) (Homo sapiens, UniProt P08069)
T5 construct: purchased Eurofins (KinaseProfiler)

IR(h) = target: T6, IR(h) (Homo sapiens, UniProt P06213)
T6 construct: purchased Eurofins (KinaseProfiler)

IRE1(h) = target: T7, IRE1(h) (Homo sapiens, UniProt O75460)
T7 construct: purchased Eurofins (KinaseProfiler)

MAPK2(h) = target: T8, MAPK2(h) (Homo sapiens, UniProt P28482)
T8 construct: purchased Eurofins (KinaseProfiler)

Met(h) = target: T9, Met(h) (Homo sapiens, UniProt P08581)
T9 construct: purchased Eurofins (KinaseProfiler)

PAK4(h) = target: T10, PAK4(h) (Homo sapiens, UniProt O96013)
T10 construct: purchased Eurofins (KinaseProfiler)

[1] = target: T11, PI3 Kinase (p110δ/p85α)(h) (Homo sapiens, UniProt O00329)
T11 construct: purchased Eurofins (KinaseProfiler)

PKCγ(h) = target: T12, PKCγ(h) (Homo sapiens, UniProt P05129)
T12 construct: purchased Eurofins (KinaseProfiler)

PRK2(h) = target: T13, PRK2(h) (Homo sapiens, UniProt Q16513)
T13 construct: purchased Eurofins (KinaseProfiler)

PhKγ1(h) = target: T14, PhKγ1(h) (Homo sapiens, UniProt Q16816)
T14 construct: purchased Eurofins (KinaseProfiler)

Ret(V804M)(h) = target: T15, Ret(V804M)(h) (Homo sapiens, UniProt P07949, V804M)
T15 construct: purchased Eurofins (KinaseProfiler)

SAPK3(h) = target: T16, SAPK3(h) (Homo sapiens, UniProt P53778)
T16 construct: purchased Eurofins (KinaseProfiler)
T16 sequence (P53778 1-367): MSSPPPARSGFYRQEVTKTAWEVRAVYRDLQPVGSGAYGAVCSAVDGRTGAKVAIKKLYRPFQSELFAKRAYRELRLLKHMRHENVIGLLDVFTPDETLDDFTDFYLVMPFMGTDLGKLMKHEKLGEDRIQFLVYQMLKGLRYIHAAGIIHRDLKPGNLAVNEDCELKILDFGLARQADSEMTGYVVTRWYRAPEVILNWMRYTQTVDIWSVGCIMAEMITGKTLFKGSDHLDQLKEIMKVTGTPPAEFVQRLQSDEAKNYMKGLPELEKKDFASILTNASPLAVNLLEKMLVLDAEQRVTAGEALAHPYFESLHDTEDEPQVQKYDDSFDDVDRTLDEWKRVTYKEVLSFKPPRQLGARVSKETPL

STK32A(h) = target: T17, STK32A(h) (Homo sapiens, UniProt Q8WU08)
T17 construct: purchased Eurofins (KinaseProfiler)

Src(1-530)(h) = target: T18, Src(1-530)(h) (Homo sapiens, UniProt P12931)
T18 construct: purchased Eurofins (KinaseProfiler)

TSSK1(h) = target: T19, TSSK1(h) (Homo sapiens, UniProt Q9BXA7)
T19 construct: purchased Eurofins (KinaseProfiler)
T19 sequence (Q9BXA7 1-367): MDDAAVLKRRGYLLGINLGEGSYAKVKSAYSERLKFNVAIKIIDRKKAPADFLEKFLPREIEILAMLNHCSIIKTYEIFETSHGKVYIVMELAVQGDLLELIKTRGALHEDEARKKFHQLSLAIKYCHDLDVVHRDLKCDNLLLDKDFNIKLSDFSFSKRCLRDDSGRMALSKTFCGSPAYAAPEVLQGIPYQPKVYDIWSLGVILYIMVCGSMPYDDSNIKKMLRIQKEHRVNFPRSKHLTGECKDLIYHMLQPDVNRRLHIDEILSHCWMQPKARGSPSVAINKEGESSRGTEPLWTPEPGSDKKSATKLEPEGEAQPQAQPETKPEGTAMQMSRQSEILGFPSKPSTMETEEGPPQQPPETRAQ

ZIPK(h) = target: T20, ZIPK(h) (Homo sapiens, UniProt O43293)
T20 construct: purchased Eurofins (KinaseProfiler)
T20 sequence (O43293 whole entry): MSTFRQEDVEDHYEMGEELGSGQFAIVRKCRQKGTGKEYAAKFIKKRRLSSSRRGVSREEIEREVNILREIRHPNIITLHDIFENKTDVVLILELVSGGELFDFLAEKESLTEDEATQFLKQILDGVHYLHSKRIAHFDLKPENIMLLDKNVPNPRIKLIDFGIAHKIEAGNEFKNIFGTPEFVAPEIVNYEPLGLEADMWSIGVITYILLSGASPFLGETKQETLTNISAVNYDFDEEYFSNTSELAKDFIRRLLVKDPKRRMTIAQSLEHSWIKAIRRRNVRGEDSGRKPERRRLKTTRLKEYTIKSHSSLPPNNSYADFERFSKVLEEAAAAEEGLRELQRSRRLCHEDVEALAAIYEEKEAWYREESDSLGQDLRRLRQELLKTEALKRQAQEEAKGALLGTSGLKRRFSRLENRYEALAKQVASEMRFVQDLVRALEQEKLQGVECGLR

T13 sequence (Q16513 whole entry): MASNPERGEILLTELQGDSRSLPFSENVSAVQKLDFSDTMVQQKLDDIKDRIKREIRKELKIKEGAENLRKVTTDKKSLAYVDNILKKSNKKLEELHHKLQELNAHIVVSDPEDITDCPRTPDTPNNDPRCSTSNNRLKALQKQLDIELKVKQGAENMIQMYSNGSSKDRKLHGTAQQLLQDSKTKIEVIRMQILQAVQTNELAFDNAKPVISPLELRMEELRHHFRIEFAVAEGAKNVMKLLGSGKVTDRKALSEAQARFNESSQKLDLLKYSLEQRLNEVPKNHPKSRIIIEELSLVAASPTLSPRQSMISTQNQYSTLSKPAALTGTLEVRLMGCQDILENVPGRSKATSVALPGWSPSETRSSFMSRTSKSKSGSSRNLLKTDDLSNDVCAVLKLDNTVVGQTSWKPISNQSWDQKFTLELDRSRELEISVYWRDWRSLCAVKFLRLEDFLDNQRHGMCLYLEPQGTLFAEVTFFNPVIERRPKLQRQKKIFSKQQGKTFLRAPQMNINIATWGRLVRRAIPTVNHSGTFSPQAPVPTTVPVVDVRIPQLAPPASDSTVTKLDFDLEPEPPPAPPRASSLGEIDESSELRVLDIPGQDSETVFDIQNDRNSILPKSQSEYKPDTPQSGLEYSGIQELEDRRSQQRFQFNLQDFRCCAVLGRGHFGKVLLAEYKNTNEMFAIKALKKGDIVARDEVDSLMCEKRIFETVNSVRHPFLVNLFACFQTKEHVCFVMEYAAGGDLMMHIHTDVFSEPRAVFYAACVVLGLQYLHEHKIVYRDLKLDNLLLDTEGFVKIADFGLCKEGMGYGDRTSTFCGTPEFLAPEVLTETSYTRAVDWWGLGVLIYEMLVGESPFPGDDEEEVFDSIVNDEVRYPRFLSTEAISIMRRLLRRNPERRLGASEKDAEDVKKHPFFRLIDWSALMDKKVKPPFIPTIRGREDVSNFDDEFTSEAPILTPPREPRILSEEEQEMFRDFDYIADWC
T4 sequence (P00533 25-1210 L861Q): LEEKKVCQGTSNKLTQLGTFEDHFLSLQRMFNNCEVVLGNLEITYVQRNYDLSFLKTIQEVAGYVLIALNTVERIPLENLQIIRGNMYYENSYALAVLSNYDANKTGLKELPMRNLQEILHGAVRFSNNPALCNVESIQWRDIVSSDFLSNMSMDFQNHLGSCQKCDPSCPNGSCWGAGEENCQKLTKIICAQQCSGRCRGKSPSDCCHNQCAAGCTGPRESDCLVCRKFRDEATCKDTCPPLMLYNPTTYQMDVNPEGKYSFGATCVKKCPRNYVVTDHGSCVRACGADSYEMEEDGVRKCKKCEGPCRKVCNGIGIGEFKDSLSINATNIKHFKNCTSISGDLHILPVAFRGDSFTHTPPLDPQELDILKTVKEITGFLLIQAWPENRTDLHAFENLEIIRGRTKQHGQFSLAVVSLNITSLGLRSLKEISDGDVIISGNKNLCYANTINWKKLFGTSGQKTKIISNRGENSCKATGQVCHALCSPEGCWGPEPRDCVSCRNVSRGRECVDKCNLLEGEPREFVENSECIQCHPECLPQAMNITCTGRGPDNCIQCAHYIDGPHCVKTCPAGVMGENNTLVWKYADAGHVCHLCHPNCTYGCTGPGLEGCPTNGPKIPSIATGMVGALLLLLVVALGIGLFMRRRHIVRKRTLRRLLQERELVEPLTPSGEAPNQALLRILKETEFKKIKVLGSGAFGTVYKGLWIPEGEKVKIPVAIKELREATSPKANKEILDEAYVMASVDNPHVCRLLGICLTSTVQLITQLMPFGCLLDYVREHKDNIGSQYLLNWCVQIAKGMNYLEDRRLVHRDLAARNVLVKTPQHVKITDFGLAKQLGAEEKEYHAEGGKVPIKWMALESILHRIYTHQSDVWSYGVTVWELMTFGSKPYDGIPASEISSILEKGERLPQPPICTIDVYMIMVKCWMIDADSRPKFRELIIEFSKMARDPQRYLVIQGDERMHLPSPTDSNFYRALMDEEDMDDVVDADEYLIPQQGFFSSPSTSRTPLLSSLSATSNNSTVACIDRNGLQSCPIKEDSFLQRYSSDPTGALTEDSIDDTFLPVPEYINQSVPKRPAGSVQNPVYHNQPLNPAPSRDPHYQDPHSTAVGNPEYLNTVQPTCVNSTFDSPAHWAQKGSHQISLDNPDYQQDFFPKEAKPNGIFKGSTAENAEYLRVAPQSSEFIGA
T10 sequence (O96013 whole entry): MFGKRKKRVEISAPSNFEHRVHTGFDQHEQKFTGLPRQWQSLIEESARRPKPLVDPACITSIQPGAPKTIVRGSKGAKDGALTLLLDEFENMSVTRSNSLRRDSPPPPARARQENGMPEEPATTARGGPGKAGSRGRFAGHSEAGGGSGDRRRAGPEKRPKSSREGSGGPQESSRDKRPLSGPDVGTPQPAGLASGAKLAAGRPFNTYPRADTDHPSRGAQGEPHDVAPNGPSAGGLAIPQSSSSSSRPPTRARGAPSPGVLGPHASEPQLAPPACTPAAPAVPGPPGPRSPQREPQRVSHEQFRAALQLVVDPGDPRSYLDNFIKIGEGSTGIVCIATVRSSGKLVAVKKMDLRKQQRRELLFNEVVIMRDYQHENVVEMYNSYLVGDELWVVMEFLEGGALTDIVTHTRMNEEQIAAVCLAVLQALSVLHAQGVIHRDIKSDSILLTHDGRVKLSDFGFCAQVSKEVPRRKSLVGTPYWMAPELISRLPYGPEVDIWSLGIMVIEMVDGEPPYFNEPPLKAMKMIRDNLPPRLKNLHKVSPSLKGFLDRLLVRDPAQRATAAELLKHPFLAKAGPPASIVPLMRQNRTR
T15 sequence (P07949 29-1114 V804M): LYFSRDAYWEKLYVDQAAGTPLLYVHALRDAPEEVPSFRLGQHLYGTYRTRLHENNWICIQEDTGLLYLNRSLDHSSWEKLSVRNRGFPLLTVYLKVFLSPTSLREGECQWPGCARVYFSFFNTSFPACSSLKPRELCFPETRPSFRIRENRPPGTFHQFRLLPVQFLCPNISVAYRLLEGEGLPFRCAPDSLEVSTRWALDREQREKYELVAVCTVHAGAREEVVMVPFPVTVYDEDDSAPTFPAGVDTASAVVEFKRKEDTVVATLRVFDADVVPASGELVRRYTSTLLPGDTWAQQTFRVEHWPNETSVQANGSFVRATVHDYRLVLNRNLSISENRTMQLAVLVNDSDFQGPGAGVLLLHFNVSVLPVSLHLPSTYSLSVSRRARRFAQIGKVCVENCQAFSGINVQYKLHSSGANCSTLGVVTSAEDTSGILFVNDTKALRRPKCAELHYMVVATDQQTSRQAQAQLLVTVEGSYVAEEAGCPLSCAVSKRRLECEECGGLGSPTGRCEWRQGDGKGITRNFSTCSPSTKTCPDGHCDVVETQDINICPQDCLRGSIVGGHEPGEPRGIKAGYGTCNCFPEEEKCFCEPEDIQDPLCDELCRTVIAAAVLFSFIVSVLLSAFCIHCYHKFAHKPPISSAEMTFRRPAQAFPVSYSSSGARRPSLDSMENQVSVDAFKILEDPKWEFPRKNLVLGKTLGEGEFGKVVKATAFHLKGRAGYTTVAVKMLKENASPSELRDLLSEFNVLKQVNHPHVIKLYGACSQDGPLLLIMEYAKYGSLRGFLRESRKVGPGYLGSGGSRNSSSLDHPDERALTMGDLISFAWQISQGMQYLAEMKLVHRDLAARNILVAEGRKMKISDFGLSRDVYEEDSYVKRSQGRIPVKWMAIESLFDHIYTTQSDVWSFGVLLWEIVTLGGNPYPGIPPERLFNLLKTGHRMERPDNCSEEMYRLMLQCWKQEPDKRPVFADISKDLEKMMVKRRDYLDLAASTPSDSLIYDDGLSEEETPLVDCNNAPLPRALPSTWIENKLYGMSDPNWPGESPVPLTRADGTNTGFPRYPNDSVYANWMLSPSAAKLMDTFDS

COc1cc(OC)c(Cl)c(-c2ccc3c(NC(=O)c4ccc(N5CCNC(C)(C)C5)cc4)n[nH]c3n2)c1Cl [3D185]
inhibition at 0.01 µM (ATR/ATRIP(h); 10 nM): -4% | inhibition at 0.1 µM (ATR/ATRIP(h); 100 nM): 10% | inhibition at 1 µM (ATR/ATRIP(h); 1000 nM): 6% | inhibition at 0.01 µM (CaMKIδ(h); 10 nM): 0% | inhibition at 0.1 µM (CaMKIδ(h); 100 nM): 23% | inhibition at 1 µM (CaMKIδ(h); 1000 nM): 76% | inhibition at 0.01 µM (DYRK1A(h); 10 nM): -4% | inhibition at 0.1 µM (DYRK1A(h); 100 nM): 1% | inhibition at 1 µM (DYRK1A(h); 1000 nM): 5% | inhibition at 0.01 µM (EGFR(L861Q)(h); 10 nM): -5% | inhibition at 0.1 µM (EGFR(L861Q)(h); 100 nM): -5% | inhibition at 1 µM (EGFR(L861Q)(h); 1000 nM): 39% | inhibition at 0.01 µM (IGF-1R(h); 10 nM): -5% | inhibition at 0.1 µM (IGF-1R(h); 100 nM): 54% | inhibition at 1 µM (IGF-1R(h); 1000 nM): 88% | inhibition at 0.01 µM (IR(h); 10 nM): 16% | inhibition at 0.1 µM (IR(h); 100 nM): 32% | inhibition at 1 µM (IR(h); 1000 nM): 94% | inhibition at 0.01 µM (IRE1(h); 10 nM): -1% | inhibition at 0.1 µM (IRE1(h); 100 nM): -13% | inhibition at 1 µM (IRE1(h); 1000 nM): 6% | inhibition at 0.01 µM (MAPK2(h); 10 nM): -5% | inhibition at 0.1 µM (MAPK2(h); 100 nM): -3% | inhibition at 1 µM (MAPK2(h); 1000 nM): 3% | inhibition at 0.01 µM (Met(h); 10 nM): 16% | inhibition at 0.1 µM (Met(h); 100 nM): 15% | inhibition at 1 µM (Met(h); 1000 nM): 55% | inhibition at 0.01 µM (PAK4(h); 10 nM): -8% | inhibition at 0.1 µM (PAK4(h); 100 nM): 0% | inhibition at 1 µM (PAK4(h); 1000 nM): -2% | inhibition at 0.01 µM ([1]; 10 nM): 1% | inhibition at 0.1 µM ([1]; 100 nM): -4% | inhibition at 1 µM ([1]; 1000 nM): 5% | inhibition at 0.01 µM (PKCγ(h); 10 nM): -4% | inhibition at 0.1 µM (PKCγ(h); 100 nM): -8% | inhibition at 1 µM (PKCγ(h); 1000 nM): -1% | inhibition at 0.01 µM (PRK2(h); 10 nM): 12% | inhibition at 0.1 µM (PRK2(h); 100 nM): 4% | inhibition at 1 µM (PRK2(h); 1000 nM): 3% | inhibition at 0.01 µM (PhKγ1(h); 10 nM): -1% | inhibition at 0.1 µM (PhKγ1(h); 100 nM): -9% | inhibition at 1 µM (PhKγ1(h); 1000 nM): -12% | inhibition at 0.01 µM (Ret(V804M)(h); 10 nM): -3% | inhibition at 0.1 µM (Ret(V804M)(h); 100 nM): -2% | inhibition at 1 µM (Ret(V804M)(h); 1000 nM): 56% | inhibition at 0.01 µM (SAPK3(h); 10 nM): -4% | inhibition at 0.1 µM (SAPK3(h); 100 nM): -12% | inhibition at 1 µM (SAPK3(h); 1000 nM): -7% | inhibition at 0.01 µM (STK32A(h); 10 nM): -5% | inhibition at 0.1 µM (STK32A(h); 100 nM): 0% | inhibition at 1 µM (STK32A(h); 1000 nM): 2% | inhibition at 0.01 µM (Src(1-530)(h); 10 nM): 4% | inhibition at 0.1 µM (Src(1-530)(h); 100 nM): 30% | inhibition at 1 µM (Src(1-530)(h); 1000 nM): 82% | inhibition at 0.01 µM (TSSK1(h); 10 nM): 5% | inhibition at 0.1 µM (TSSK1(h); 100 nM): 2% | inhibition at 1 µM (TSSK1(h); 1000 nM): 13% | inhibition at 0.01 µM (ZIPK(h); 10 nM): -3% | inhibition at 0.1 µM (ZIPK(h); 100 nM): 0% | inhibition at 1 µM (ZIPK(h); 1000 nM): 2%
